Results as given in patent US10508104B2, “6-hydroxy-5-(phenyl/heteroarylsulfonyl)pyrimidin-4(1H)-one as APJ agonists” (Bristol-Myers Squibb Company, priority 2016, dated 2019).
pEC50: −log10 of the molar value.

target: human APJ receptor (Homo sapiens (Human), UniProt P35414); experiment: Intracellular cAMP accumulation assay (APJ hcAMP, HTRF); format: cell-based; conditions: human APJ, intracellular cAMP accumulation; read-out: Human APJ cAMP EC50 Potency range
Description: Intracellular cAMP Accumulation Assay
HEK293 cells stably expressing human APJ receptor were used to assess the activity of compounds. Cultured cells were detached and resuspended in the cAMP Homogeneous Time-Resolved Fluorescence (HTRF) assay buffer (Cisbio cat; #62AM4PEJ). The assay was performed in 384-well assay plates (Perkin-Elmer; cat #6008289) according to assay protocol provided by the manufacturer. Serial dilutions of a compound together with assay buffer containing […] and 2 μM forskolin were added to each well containing 5,000 cells and incubated for 30 minutes at room temperature. Subsequently, cAMP D2 reagent was added in the lysis buffer followed by the EuK antibody (Cisbio; cat #62AM4PEJ) and incubated for 60 min. The fluorescence emission ratio was measured using fluorometer. The intracellular cAMP concentrations (compound-stimulated inhibition of forskolin-mediated cAMP production) were calculated by extrapolation from a standard curve using known cAMP concentrations. The EC50 values were obtained by fitting the data to a sigmoidal concentration-response curve with variable slope.
The EC50 value of each compound is presented at the end of the example description.
The biological activity of the exemplified compounds of this invention determined by the assay described above is shown at the end of each example.

Sequence of human APJ receptor (P35414 whole entry): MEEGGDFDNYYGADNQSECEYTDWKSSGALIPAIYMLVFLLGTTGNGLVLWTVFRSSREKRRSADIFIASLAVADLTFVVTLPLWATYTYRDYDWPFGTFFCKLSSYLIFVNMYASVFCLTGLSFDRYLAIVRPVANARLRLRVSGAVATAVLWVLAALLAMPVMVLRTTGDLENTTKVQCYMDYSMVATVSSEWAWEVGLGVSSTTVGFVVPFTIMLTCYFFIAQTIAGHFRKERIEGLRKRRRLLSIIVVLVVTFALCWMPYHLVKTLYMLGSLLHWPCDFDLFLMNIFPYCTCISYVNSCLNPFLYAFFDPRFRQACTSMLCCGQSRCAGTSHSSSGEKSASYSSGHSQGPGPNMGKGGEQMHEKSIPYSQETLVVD

pEC50, 8.00 to 11.00:
COc1cccc(OC)c1-n1c(COC(C)C)nc(=O)c(S(=O)(=O)c2ccc(-c3ccccc3)cc2)c1O [Example 33, 1-(2,6-dimethoxyphenyl)-6-hydroxy-5-(4-phenylbenzenesulfonyl)-2-[(propan-2-yloxy)methyl]-1,4-dihydropyrimidin-4-one]
CCCCc1nc(=O)c(S(=O)(=O)c2ccc(-c3ccncc3F)cc2)c(O)n1-c1c(OC)cccc1OC [Example 34, 2-butyl-1-(2,6-dimethoxyphenyl)-5-[4-(3-fluoropyridin-4-yl)benzenesulfonyl]-6-hydroxy-1,4-dihydropyrimidin-4-one]
CCCCc1nc(=O)c(S(=O)(=O)c2ccc(-c3cc(F)ccc3F)cc2)c(O)n1-c1c(OC)cccc1OC [Example 35, 2-butyl-5-[4-(2,5-difluorophenyl)benzenesulfonyl]-1-(2,6-dimethoxyphenyl)-6-hydroxy-1,4-dihydropyrimidin-4-one]
CCCCc1nc(=O)c(S(=O)(=O)c2ccc(-c3ccc(Cl)c(F)c3)cc2)c(O)n1-c1c(OC)cccc1OC [Example 36, 2-butyl-5-[4-(4-chloro-3-fluorophenyl)benzene-sulfonyl]-1-(2,6-dimethoxyphenyl)-6-hydroxy-1,4-dihydropyrimidin-4-one]
CCCCc1nc(=O)c(S(=O)(=O)c2ccc(-c3cnc(F)c(Cl)c3)cc2)c(O)n1-c1c(OC)cccc1OC [Example 37, 2-butyl-5-[4-(5-chloro-6-fluoropyridin-3-yl)benzenesulfonyl]-1-(2,6-dimethoxyphenyl)-6-hydroxy-1,4-dihydropyrimidin-4-one]
CCCCc1nc(=O)c(S(=O)(=O)c2ccc(-c3ccc(CN(C)C)cc3)cc2)c(O)n1-c1c(OC)cccc1OC [Example 38, 2-butyl-1-(2,6-dimethoxyphenyl)-5-(4-{4-[(dimethyla,o)methyl]phenyl}benzenesulfonyl)-6-hydroxy-1,4-dihydropyrimidin-4-one]
CCCCc1nc(=O)c(S(=O)(=O)c2ccc(-c3ccc(C(=O)NC4CC4)cc3)cc2)c(O)n1-c1c(OC)cccc1OC [Example 39, 4-(4-{[2-butyl-1-(2,6-dimethoxyphenyl)-6-hydroxy-4-oxo-1,4-dihydropyrimidin-5-yl]sulfonyl}phenyl)-N-cyclopropylbenzamide]
CCCCc1nc(=O)c(S(=O)(=O)c2ccc(-c3ccncc3C)cc2)c(O)n1-c1c(OC)cccc1OC [Example 40, 2-butyl-1-(2,6-dimethoxyphenyl)-6-hydroxy-5-[4-(3-methylpyridin-4-yl)benzenesulfonyl]-1,4-dihydropyrimidin-4-one]
CCCCc1nc(=O)c(S(=O)(=O)c2ccc(-c3ccc(C4CC4)nc3)cc2)c(O)n1-c1c(OC)cccc1OC [Example 41, 2-butyl-5-[4-(6-cyclopropylpyridin-3-yl)benzenesulfonyl]-1-(2,6-dimethoxyphenyl)-6-hydroxy-1,4-dihydropyrimidin-4-one]
CCCCc1nc(=O)c(S(=O)(=O)c2ccc(-c3cccc(F)n3)cc2)c(O)n1-c1c(OC)cccc1OC [Example 42, 2-butyl-1-(2,6-dimethoxyphenyl)-5-[4-(6-fluoropyridin-2-yl)benzenesulfonyl]-6-hydroxy-1,4-dihydropyrimidin-4-one]
CCCCc1nc(=O)c(S(=O)(=O)c2ccc(-c3ccnc(OC)c3)cc2)c(O)n1-c1c(OC)cccc1OC [Example 43, 2-butyl-1-(2,6-dimethoxyphenyl)-6-hydroxy-5-[4-(2-methoxypyridin-4-yl)benzenesulfonyl]-1,4-dihydropyrimidin-4-one]
CCCCc1nc(=O)c(S(=O)(=O)c2ccc(-c3ccc(C(N)=O)cc3)cc2)c(O)n1-c1c(OC)cccc1OC [Example 44, 4-(4-{[2-butyl-1-(2,6-dimethoxyphenyl)-6-hydroxy-4-oxo-1,4-dihydropyrimidin-5-yl]sulfonyl}phenyl) benzamide]
CCCCc1nc(=O)c(S(=O)(=O)c2ccc(-c3cccc(OCOC)c3)cc2)c(O)n1-c1c(OC)cccc1OC [Example 45, 2-butyl-1-(2,6-dimethoxyphenyl)-6-hydroxy-5-{4-[3-(methoxymethoxy)phe-nyl]benzenesulfonyl}-1,4-dihydropyrimidin-4-one]
CCCCc1nc(=O)c(S(=O)(=O)c2ccc(-c3ccccc3C#N)cc2)c(O)n1-c1c(OC)cccc1OC [Example 46, 2-(4-{[2-butyl-1-(2,6-dimethoxyphenyl)-6-hydroxy-4-oxo-1,4-dihydropyrimidin-5-yl]sulfonyl}phenyl) benzonitrile]
CCCCc1nc(=O)c(S(=O)(=O)c2ccc(-c3cccc(C#N)c3)cc2)c(O)n1-c1c(OC)cccc1OC [Example 47, 3-(4-{[2-butyl-1-(2,6-dimethoxyphenyl)-6-hydroxy-4-oxo-1,4-dihydropyrimidin-5-yl]sulfonyl}phenyl) benzonitrile]
CCCCc1nc(=O)c(S(=O)(=O)c2ccc(-c3ccc(NC(=O)OC)cc3)cc2)c(O)n1-c1c(OC)cccc1OC [Example 48, methyl N-[4-(4-{[2-butyl-1-(2,6-dimethoxyphenyl)-6-hydroxy-4-oxo-1,4-dihydropyrimidin-5-yl]sulfonyl}phenyl)phe-nyl]carbamate]
CCCCc1nc(=O)c(S(=O)(=O)c2ccc(-c3ccccc3COC)cc2)c(O)n1-c1c(OC)cccc1OC [Example 49, 2-butyl-1-(2,6-dimethoxyphenyl)-6-hydroxy-5-{4-[2-(methoxymethyl)phenyl]benzenesulfonyl}-1,4-dihydropyrimidin-4-one]
CCCCc1nc(=O)c(S(=O)(=O)c2ccc(-c3cncc(F)c3)cc2)c(O)n1-c1c(OC)cccc1OC [Example 50, 2-butyl-1-(2,6-dimethoxyphenyl)-5-[4-(5-fluoropyridin-3-yl)benzenesulfonyl]-6-hydroxy-1,4-dihydropyrimidin-4-one]
CCCCc1nc(=O)c(S(=O)(=O)c2ccc(-c3ccnc(NC(=O)C4CC4)c3)cc2)c(O)n1-c1c(OC)cccc1OC [Example 51, N-[4-(4-{[2-butyl-1-(2,6-dimethoxyphenyl)-6-hydroxy-4-oxo-1,4-dihydropyrimidin-5-yl]sulfonyl}phenyl)pyri-din-2-yl]cyclopropane-carboxamide]
CCCCc1nc(=O)c(S(=O)(=O)c2ccc(-c3cccc4cnccc34)cc2)c(O)n1-c1c(OC)cccc1OC [Example 52, 2-butyl-1-(2,6-dimethoxyphenyl)-6-hydroxy-5-[4-(isoquinolin-5-yl)benzenesulfonyl]-1,4-dihydropyrimidin-4-one]
CCCCc1nc(=O)c(S(=O)(=O)c2ccc(-c3ccc4c(ccn4C)c3)cc2)c(O)n1-c1c(OC)cccc1OC [Example 53, 2-butyl-1-(2,6-dimethoxyphenyl)-6-hydroxy-5-[4-(1-methyl-1H-indol-5-yl)benzenesulfonyl]-1,4-dihydropyrimidin-4-one]
